Like-named read-outs stand apart in the source and are kept apart here.
Assays:
[1] = biological target: T1, human EHMT2 913-1193 (Homo sapiens, UniProt Q96KQ7); experiment: EHMT2 enzyme assay on histone peptide substrate (EHMT2 PEP); assay type: biochemical
T1 construct: recombinant purified human EHMT2 913-1193, Viva; purchased Viva
T1 sequence (Q96KQ7 913-1193): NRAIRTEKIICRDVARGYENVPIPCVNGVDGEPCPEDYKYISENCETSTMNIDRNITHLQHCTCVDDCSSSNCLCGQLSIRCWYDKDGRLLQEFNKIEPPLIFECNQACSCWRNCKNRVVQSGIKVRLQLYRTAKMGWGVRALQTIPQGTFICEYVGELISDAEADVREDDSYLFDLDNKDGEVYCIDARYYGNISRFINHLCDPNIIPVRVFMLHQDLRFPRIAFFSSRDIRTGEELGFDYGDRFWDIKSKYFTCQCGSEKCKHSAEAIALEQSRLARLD
Description: Recombinant purified human EHMT2 913-1193 (55 μM) synthesized by Viva was used for all experiments. Biotinylated histone peptides were synthesized by Biopeptide and HPLC-purified to >95% purity. Streptavidin Flashplates and seals were purchased from PerkinElmer and 384 Well V-bottom Polypropylene Plates were from Greiner. ^3H-labeled S-adenosylmethionine (^3H-SAM) was obtained from American Radiolabeled Chemicals with a specific activity of 80 Ci/mmol. Unlabeled SAM and S-adenosylhomocysteine (SAH) were obtained from American Radiolabeled Chemicals and Sigma-Aldrich respectively. Flashplates were washed in a Biotek ELx-405 with 0.1% Tween. 384-well Flashplates and 96-well filter binding plates were read on a TopCount microplate reader (PerkinElmer). Compound serial dilutions were performed on a Freedom EVO (Tecan) and spotted into assay plates using a Thermo Scientific Matrix PlateMate (Thermo Scientific). Reagent cocktails were added by Multidrop Combi (Thermo Scientific).
General Procedure for EHMT2 Enzyme Assay on Histone Peptide Substrate.
10-point curves of test compounds were made on a Freedom EVO (Tecan) using serial 3-fold dilutions in DMSO, beginning at 2.5 mM (final top concentration of compound was 50 μM and the DMSO was 2%). A 1 μL aliquot of the inhibitor dilution series was spotted in a polypropylene 384-well V-bottom plate (Greiner) using a Thermo Scientific Matrix PlateMate (Thermo Scientific). […] Compounds were incubated for 30 minutes with 40 μL per well of 0.031 nM EHMT2 (recombinant purified human EHMT2 913-1193, Viva) in 1× assay buffer (20 mM Bicine [pH 7.5], 0.002% Tween 20, 0.005% Bovine Skin Gelatin and 1 mM TCEP). […] Reactions were incubated for 60 minutes at room temperature and quenched with 10 μL per well of 400 μM unlabeled SAM, then transferred to a 384-well streptavidin Flashplate (PerkinElmer) and washed in a Biotek ELx-405 well washer with 0.1% Tween after 60 minutes. 384-well Flashplates were read on a TopCount microplate reader (PerkinElmer).

[2] = biological target: T2, EHMT1 (Homo sapiens, UniProt Q9H9B1); experiment: EHMT1 enzyme assay on peptide substrate (EHMT1 PEP); assay type: biochemical
T2 sequence (Q9H9B1 1-1298): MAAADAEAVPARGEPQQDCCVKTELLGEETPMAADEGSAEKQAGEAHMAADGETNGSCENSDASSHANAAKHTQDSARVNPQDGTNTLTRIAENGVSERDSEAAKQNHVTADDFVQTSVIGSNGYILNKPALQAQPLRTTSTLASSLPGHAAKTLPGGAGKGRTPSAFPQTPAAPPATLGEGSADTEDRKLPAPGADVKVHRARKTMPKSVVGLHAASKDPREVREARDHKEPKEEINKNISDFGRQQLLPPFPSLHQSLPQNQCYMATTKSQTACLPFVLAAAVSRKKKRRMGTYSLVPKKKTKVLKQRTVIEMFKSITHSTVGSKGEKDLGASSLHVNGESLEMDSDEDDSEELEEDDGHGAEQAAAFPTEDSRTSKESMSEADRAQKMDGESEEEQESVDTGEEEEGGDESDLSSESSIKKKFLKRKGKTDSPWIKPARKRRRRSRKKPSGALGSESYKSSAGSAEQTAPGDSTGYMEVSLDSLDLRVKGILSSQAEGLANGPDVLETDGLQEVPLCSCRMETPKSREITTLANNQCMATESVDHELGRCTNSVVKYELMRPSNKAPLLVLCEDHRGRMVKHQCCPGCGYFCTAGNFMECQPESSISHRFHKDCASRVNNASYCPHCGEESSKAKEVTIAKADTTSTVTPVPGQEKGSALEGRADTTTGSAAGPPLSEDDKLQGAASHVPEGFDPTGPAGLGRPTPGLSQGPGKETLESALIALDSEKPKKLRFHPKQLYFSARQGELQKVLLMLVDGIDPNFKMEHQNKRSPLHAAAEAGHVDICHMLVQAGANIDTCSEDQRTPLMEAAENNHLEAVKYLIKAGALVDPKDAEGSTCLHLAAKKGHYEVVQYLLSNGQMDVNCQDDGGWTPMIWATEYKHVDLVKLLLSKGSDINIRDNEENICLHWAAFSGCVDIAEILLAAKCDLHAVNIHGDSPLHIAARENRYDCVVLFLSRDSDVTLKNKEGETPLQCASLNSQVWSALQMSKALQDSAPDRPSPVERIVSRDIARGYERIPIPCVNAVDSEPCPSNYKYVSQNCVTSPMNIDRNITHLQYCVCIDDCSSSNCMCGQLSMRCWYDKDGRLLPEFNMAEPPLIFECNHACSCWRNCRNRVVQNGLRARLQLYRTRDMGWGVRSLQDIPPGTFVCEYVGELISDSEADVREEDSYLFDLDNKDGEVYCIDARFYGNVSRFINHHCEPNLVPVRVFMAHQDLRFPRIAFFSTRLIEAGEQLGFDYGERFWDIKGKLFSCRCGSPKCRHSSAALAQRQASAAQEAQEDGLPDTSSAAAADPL

[3] = biological target: T3, EHMT2 (Homo sapiens, UniProt Q96KQ7); experiment: MDA-MB-231 H3K9me2 in-cell Western assay (EHMT2 ICW); assay type: cell-based; conditions: Table III; MDA-MB-231 H3K9me2 in-cell Western; read-out: EHMT2 ICW (IC50 μM)
T3 construct: host or cells: MDA-MB-231
T3 sequence (Q96KQ7 1-1210): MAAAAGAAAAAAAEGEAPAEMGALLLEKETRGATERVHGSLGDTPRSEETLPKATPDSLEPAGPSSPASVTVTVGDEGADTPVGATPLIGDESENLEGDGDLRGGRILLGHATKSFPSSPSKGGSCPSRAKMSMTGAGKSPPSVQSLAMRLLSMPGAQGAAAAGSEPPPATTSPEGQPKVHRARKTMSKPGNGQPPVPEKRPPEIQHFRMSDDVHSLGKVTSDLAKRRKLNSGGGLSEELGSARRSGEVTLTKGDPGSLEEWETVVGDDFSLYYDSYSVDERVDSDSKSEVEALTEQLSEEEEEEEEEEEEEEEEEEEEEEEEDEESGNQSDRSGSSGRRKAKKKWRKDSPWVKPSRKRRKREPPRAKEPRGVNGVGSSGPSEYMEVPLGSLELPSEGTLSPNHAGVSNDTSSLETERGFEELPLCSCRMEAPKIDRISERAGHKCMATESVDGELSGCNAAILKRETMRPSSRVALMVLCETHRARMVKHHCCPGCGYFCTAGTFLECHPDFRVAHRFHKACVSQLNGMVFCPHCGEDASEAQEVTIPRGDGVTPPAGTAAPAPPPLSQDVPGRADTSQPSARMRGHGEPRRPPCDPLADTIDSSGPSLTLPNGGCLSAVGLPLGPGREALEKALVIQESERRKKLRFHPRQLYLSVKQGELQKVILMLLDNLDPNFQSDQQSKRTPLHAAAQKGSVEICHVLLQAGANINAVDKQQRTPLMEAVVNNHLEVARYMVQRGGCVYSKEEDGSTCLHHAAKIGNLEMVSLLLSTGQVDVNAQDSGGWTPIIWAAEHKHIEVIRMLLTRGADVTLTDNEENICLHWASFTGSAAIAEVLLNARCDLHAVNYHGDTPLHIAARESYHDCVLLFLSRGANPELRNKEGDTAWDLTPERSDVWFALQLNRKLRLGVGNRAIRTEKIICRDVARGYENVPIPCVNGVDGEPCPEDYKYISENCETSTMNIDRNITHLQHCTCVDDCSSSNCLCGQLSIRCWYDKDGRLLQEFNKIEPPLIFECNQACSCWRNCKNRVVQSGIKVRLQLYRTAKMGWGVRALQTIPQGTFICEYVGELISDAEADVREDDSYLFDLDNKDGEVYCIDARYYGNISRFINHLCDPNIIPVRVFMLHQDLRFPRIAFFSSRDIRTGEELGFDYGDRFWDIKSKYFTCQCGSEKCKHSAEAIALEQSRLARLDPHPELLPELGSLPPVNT
Description: RPMI/Glutamax medium, Penicillin-Streptomycin, Heat Inactivated Fetal Bovine Serum, and D-PBS were purchased from Life Technologies (Grand Island, N.Y., USA). Odyssey blocking buffer, 800CW goat anti-mouse IgG (H+L) antibody, and Licor Odyssey Infrared Scanner were purchased from Licor Biosciences, Lincoln, Nebr., USA. […] 16% Paraformaldehyde was purchased from Electron Microscopy Sciences, Hatfield, Pa., USA).MDA-MB-231 cells were maintained in complete growth medium (RPMI supplemented with 10% v/v heat inactivated fetal bovine serum) and cultured at 37° C. under 5% CO2. UNC0638 was purchased from Sigma-Aldrich (St. Louis, Mo., USA).
Compound (100 nL) was added directly to 384-well cell plate. MDA-MB-231 cells (ATCC) were seeded in assay medium (RPMI/Glutamax supplemented with 10% v/v heat inactivated fetal bovine serum and 1% Penicillin/Streptomycin, Life Technologies) at a concentration of 3,000 cells per well to a Poly-D-Lysine coated 384-well cell culture plate with 50 μL per well. […] Plates were incubated at room temperature for 30 minutes and then incubated at 37° C., 5% CO2 for additional 48 hours. After the incubation, 50 μL per well of 8% paraformaldehyde (Electron Microscopy Sciences) in PBS was added to the plates and incubated at room temperature for 20 minutes. […] Next, 60 μL per well of Odyssey blocking buffer (Licor Biosciences) was added to each plate and incubated for 1 hour at room temperature. Blocking buffer was removed and 20 μL of monoclonal primary antibody α-H3K9me2 (Abcam) diluted 1:800 in Odyssey buffer with 0.1% Tween 20 (v/v) were added and plates were incubated overnight (16 hours) at 4° C. Plates were washed 5 times with 100 μL per well of wash buffer. Next 20 μL per well of secondary antibody was added (1:500 800CW donkey anti-mouse IgG (H+L) antibody (Licor Biosciences), 1:1000 DRAQ5 (Cell Signaling Technology) in Odyssey buffer with 0.1% Tween 20 (v/v)) and incubated for 1 hour at room temperature. The plates were washed 5 times with 100 μL per well wash buffer then 2 times with 100 μL per well of water. Plates were allowed to dry at room temperature then imaged on a Licor Odyssey Infrared Scanner (Licor Biosciences) which measured integrated intensity at 700 nm and 800 nm wavelengths. Both 700 and 800 channels were scanned.
First, the ratio for each well was determined by:
The average of the ratio values for each well was calculated and used to determine the percent inhibition for each test well in the plate. Control compound was serially diluted three-fold in DMSO for a total of 10 test concentrations beginning at 1 μM. Percent inhibition was calculated as: […]
IC50 curves were generated using triplicate wells per concentration of compound. […] IC50 values were calculated using a non-linear regression (variable slope-four parameter fit model) with by the following formula: […]

[4] = Table III, read-out: EHMT2 PEP (IC50 μM)
[5] = Table III, read-out: EHMT1 PEP (IC50 μM)
[6] = Table VII, read-out: EHMT2 PEP IC50
[7] = Table VII, read-out: EHMT1 PEP IC50

| IC50 [1, 4] | IC50 [2, 5] | IC50 [3] | IC50 [1, 6] | IC50 [2, 7] | SMILES |
| --- | --- | --- | --- | --- | --- |
| < 0.1 µM |  | 0.1 to 1 µM |  |  | CNc1ccnc(Nc2ccc(OC)c(OCCCN3CCC3)c2)n1 [Compound 281] |
| 1 to 10 µM | 1 to 10 µM |  |  |  | CNc1ccnc(Nc2ccc(OC(F)(F)F)c(OCCCN3CCCC3)c2)n1 [Compound 315, N^4-methyl-N^2-(3-(3-(pyrrolidin-1-yl)propoxy)-4-(trifluoromethoxy)phenyl)pyrimidine-2,4-diamine] |
|  |  | 0.1 to 1 µM |  |  | CNc1ccnc(Nc2ccc(OC)c(OCCCN3CCCC3)c2)n1 [Compound 399] |
|  |  |  | 1 to 10 µM | > 10 µM | CCNc1nc(C)cc(Nc2ccc(NC(=O)Nc3ccc(F)cc3)cc2)n1 [Compound 1116] |

The remaining lines, values behind:

| SMILES | IC50 [1, 4] | IC50 [2, 5] | IC50 [3] | IC50 [1, 6] | IC50 [2, 7] |
| --- | --- | --- | --- | --- | --- |
| CNc1nc(Nc2ccc(OC)c(OCCCN3CCCC3)c2)nc2ccccc12 [Compound 263, N^2-(4-methoxy-3-(3-(pyrrolidin-1-yl)propoxy)phenyl)-N^4-methylquinazoline-2,4-diamine] | < 0.1 µM | < 0.1 µM |  |  |  |
| CCc1ccccc1NC(=O)Nc1ccc(Nc2nc(C)cc(N3CCCC3)n2)cc1 [Compound 1115] |  |  |  | 1 to 10 µM | 1 to 10 µM |
| Cc1cc(N(C)C)nc(Nc2ccc(NC(=O)Nc3ccc(Cl)cc3)cc2)n1 [Compound 1117] |  |  |  | 1 to 10 µM | > 10 µM |
| CCNc1nc(C)cc(Nc2ccc(NC(=O)Nc3ccc(C)c(C)c3)cc2)n1 [Compound 1118] |  |  |  | 1 to 10 µM | > 10 µM |
| Cc1ccc(NC(=O)Nc2ccc(Nc3nc(C)cc(N4CCCC4)n3)cc2)cc1 [Compound 1119] |  |  |  | 1 to 10 µM | 1 to 10 µM |
